# What was measured:
# [1] = system: Cucumber fusarium wilt; experiment: In vitro fungicidal activity, PDA colony diameter; type: cell-based; settings: 96 h, 50 mg/kg, inhibition of colony diameter, read-out: Fungicidal activity (%) Cucumber fusarium wilt
# [2] = system: Cercospora brown spot of peanut; experiment: In vitro fungicidal activity, PDA colony diameter; type: cell-based; settings: 96 h, 50 mg/kg, inhibition of colony diameter, read-out: Fungicidal activity (%) Cercospora brown spot of peanut
# [3] = system: Tomato early blight; experiment: In vitro fungicidal activity, PDA colony diameter; type: cell-based, Alternaria solani; settings: 50 mg/kg, inhibition of colony diameter; read-out: Fungicidal activity (%) Tomato early blight
# [4] = system: Wheat head blight; experiment: whole plant or invertebrate; type: cell-based; settings: Triticum aestivum, read-out: Fungicidal activity (%) Wheat head blight
# [5] = system: Rice bakanae disease; experiment: In vitro fungicidal activity, PDA colony diameter; type: cell-based; settings: 50 mg/kg, inhibition of colony diameter; read-out: Fungicidal activity (%) Rice bakanae disease
# [6] = system: Sclerotinia rot of colza; experiment: In vitro fungicidal activity, PDA colony diameter; type: cell-based; settings: 96 h, 50 mg/kg, inhibition of colony diameter, read-out: Fungicidal activity (%) Sclerotinia rot of colza
# [7] = system: Apple ring rot; experiment: In vitro fungicidal activity, PDA colony diameter; type: cell-based; settings: inhibition of colony diameter
# Summary of the method: (§1)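 Mycelial plugs cut from the edge of 7-day PDA colonies placed on PDA containing 50 mg/kg compound or on compound-free PDA, grown 4 days. Colony diameters measured; percent inhibition calculated against untreated control.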
# [8] = system: Capsicum phytophthora blight; experiment: In vitro fungicidal activity, PDA colony diameter; type: cell-based; settings: 96 h
# Summary of the method: as §1
# [9] = system: Wheat sheath blight; experiment: In vitro fungicidal activity, PDA colony diameter; type: cell-based; settings: 50 mg/kg, inhibition of colony diameter; read-out: Fungicidal activity (%) Wheat sheath blight
# [10] = system: Corn southern leaf blight; experiment: In vitro fungicidal activity, PDA colony diameter; type: cell-based; settings: 50 mg/kg, inhibition of colony diameter; read-out: Fungicidal activity (%) Corn southern leaf blight
# [11] = system: Watermelon anthracnose; experiment: In vitro fungicidal activity, PDA colony diameter; type: cell-based; settings: 50 mg/kg, inhibition of colony diameter; read-out: Fungicidal activity (%) Watermelon anthracnose
# [12] = system: Potato late blight; experiment: microbe, parasite or virus in culture; type: cell-based; settings: Phytophthora infestans, 96 h, read-out: Fungicidal activity (%) Potato late blight
# [13] = system: Rice sheath blight; experiment: In vitro fungicidal activity, PDA colony diameter; type: cell-based; settings: 50 mg/kg, inhibition of colony diameter; read-out: Fungicidal activity (%) Rice sheath blight
# [14] = system: Armyworms; experiment: Test of insecticidal activity against armyworms (leaf immersion); settings: 600 mg/kg, 3-4 days
# [15] = system: Maize borers; experiment: Test of insecticidal activity against maize borers (leaf immersion); settings: read-out: Mortalities (%) Maize borers
# [16] = system: mosquito larvae (Culer pipiens pallens); experiment: Test of insecticidal activity against mosquito larvae (checked after 24 h); settings: 24 h, read-out: Mortalities (%) against mosquito larvae
# [17] = system: bean aphides (Aphis laburni Kaltenbach); experiment: Test of insecticidal activity against aphides (leaf immersion, checked after 96 h); settings: for mortality at 10 mg/kg / mortality at 100 mg/kg / mortality at 600 mg/kg / mortality at 5 mg/kg: Aphis, 96 h, read-out: Mortalities (%) against aphides; for insecticidal activity against aphides compared with pymetrozine: 5 mg/kg
# Procedure: The insecticidal activity against aphides is tested through the following steps: the tested aphides are bean aphides (Aphis laburni Kaltenbach), a normal colony fed with broad bean leaves in a laboratory. The pesticide is weighed, 1 mL DMF is added to dissolve the pesticide, then two drops of emulsifier, Tween-20 are added, and distilled water is added in an appropriate amount; the mixture is stirred to a homogeneous state to prepare pesticide solution at required concentration (see the following table for the specific concentration). […] In a control group, only emulsifier and solvent are added into distilled water, and the mixture is stirred to a homogeneous state.
# [18] = system: Cotton bollworms; experiment: Test of insecticidal activity against cotton bollworms (pesticide mixed into feedstuff); settings: read-out: Mortalities (%) Cotton bollworms
# Procedure: Method of testing against cotton bollworms: the pesticide is mixed into the feedstuff, i.e., 3 mL prepared solution is added into about 27 g freshly prepared feedstuff; thus, required concentration is obtained by diluting by 10 times.
Compound,inhibition of growth at 50 mg/kg [1],inhibition of growth at 50 mg/kg [2],inhibition at 50 mg/kg [3],inhibition at 50 mg/kg [4],inhibition at 50 mg/kg [5],inhibition of growth at 50 mg/kg [6],inhibition at 50 mg/kg [7],inhibition of growth at 50 mg/kg [8],inhibition at 50 mg/kg [9],inhibition at 50 mg/kg [10],inhibition at 50 mg/kg [11],inhibition of growth at 50 mg/kg [12],inhibition at 50 mg/kg [13],Mortalities (%) Armyworms [14],mortality at 600 mg/kg [15],mortality at 10 mg/kg [16],mortality at 10 mg/kg [17],mortality at 100 mg/kg [17],mortality at 600 mg/kg [17],mortality at 600 mg/kg [18],other results
"CC1=NNC(=O)N(NS(=O)(=O)c2cccs2)C1 [Ia-28, N-(6-methyl-3-oxo-2,3-dihydro-1,2,4-triazin-4(5H)-yl)-thienyl-2-sulfonamide]",0%,12%,23.9%,8.1%,17.2%,15.8%,0%,25%,8.7%,18.7%,0%,0%,17.4%,5%,5%,100%,65%,100%,100%,10%,mortality at 5 mg/kg [16]: 20%
"CC1=NNC(=O)N(NS(=O)(=O)c2ccc(F)c(F)c2F)C1 [Ia-20, 2,3,4-trifluoro-N-(6-methyl-3-oxo-2,3-dihydro-1,2,4-triazin-4(5H)-yl)-benzenesulfonamide]",0%,12%,16.4%,5.4%,10.3%,15.8%,4.1%,0%,17.4%,3.1%,13.1%,18.7%,9.3%,65%,50%,100%,70%,100%,100%,20%,mortality at 2 mg/kg [16]: 20%; mortality at 5 mg/kg [16]: 100%; mortality at 5 mg/kg [17]: 10%
"CC1=NNC(=O)N(N(S(C)(=O)=O)S(C)(=O)=O)C1 [Ib-1, N-(6-methyl-3-oxo-2,3-dihydro-1,2,4-triazin-4(5H)-yl)-N-(methylsulfonyl)-methylsulfonylamide]",0%,15.8%,23.8%,6.7%,44.4%,36.7%,20.7%,26.5%,56.8%,12.5%,20.8%,29.6%,34.9%,15%,10%,35%,100%,100%,100%,30%,insecticidal activity against aphides compared with pymetrozine [17]: equivalent to the insecticidal activity of pymetrozine; mortality at 5 mg/kg [17]: 20%
"CC1=NNC(=O)N(NS(=O)(=O)c2cccc(F)c2)C1 [Ia-17, 3-fluoro-N-(6-methyl-3-oxo-2,3-dihydro-1,2,4-triazin-4(5H)-yl)-benzenesulfonamide]",5.9%,16%,13.4%,35.1%,13.8%,21%,10.8%,13.9%,14.3%,0%,8.2%,3.1%,20.9%,5%,10%,100%,85%,100%,100%,5%,mortality at 2 mg/kg [16]: 60%; mortality at 5 mg/kg [16]: 100%; insecticidal activity against aphides compared with pymetrozine [17]: equivalent to the insecticidal activity of pymetrozine; mortality at 5 mg/kg [17]: 35%

# Source: patent US11203577B2, “Sulfonyl-structure-containing triazinone derivatives, their preparation methods and their uses in insect killing and/or bacterium killing” (Nankai University, priority 2017, dated 2021)
